Measurements from ChEMBL document CHEMBL4665869, “New thiazolopyrimidine as anticancer agents: Synthesis, biological evaluation, DNA binding, molecular modeling and ADMET study” (Bioorg Med Chem Lett, 2020).
In brackets after ≈: the same amount, converted by molar mass.

Assays:
HCT-116 = assay: Growth inhibition of human HCT-116 cells at 10 uM relative to control; type: functional; conditions: read-out: GI
SF-268 = assay: Growth inhibition of human SF-268 cells at 10 uM relative to control; type: functional; conditions: read-out: GI
Hs-578T = assay: Growth inhibition of human Hs-578T cells at 10 uM relative to control; type: functional; conditions: read-out: GI
ACHN = assay: Growth inhibition of human ACHN cells at 10 uM relative to control; type: functional; conditions: read-out: GI
SF-295 = assay: Growth inhibition of human SF-295 cells at 10 uM relative to control; type: functional; conditions: read-out: GI
M14 = assay: Growth inhibition of human M14 cells at 10 uM relative to control; type: functional; conditions: read-out: GI
MDA-MB-435 = assay: Growth inhibition of human MDA-MB-435 cells at 10 uM relative to control; type: functional; conditions: read-out: GI
HCC 2998 = assay: Growth inhibition of human HCC 2998 cells at 10 uM relative to control; type: functional; conditions: read-out: GI
UO-31 = assay: Growth inhibition of human UO-31 cells at 10 uM relative to control; type: functional; conditions: read-out: GI
DNA = assay: Displacement of methyl green from DNA (unknown origin) assessed as DNA intercalation after 24 hrs by colorimetric assay; type: nucleic-acid assay
NCI-H522 = assay: Growth inhibition of human NCI-H522 cells at 10 uM relative to control; type: functional; conditions: read-out: GI
786-0 = assay: Growth inhibition of human 786-0 cells at 10 uM relative to control; type: functional; conditions: read-out: GI
LOX IMVI = assay: Growth inhibition of human LOX IMVI cells at 10 uM relative to control; type: functional; conditions: read-out: GI
OVCAR-8 = assay: Growth inhibition of human OVCAR-8 cells at 10 uM relative to control; type: functional; conditions: read-out: GI
MDA-MB-468 = assay: Growth inhibition of human MDA-MB-468 cells at 10 uM relative to control; type: functional; conditions: read-out: GI
HCT-15 = assay: Growth inhibition of human HCT-15 cells at 10 uM relative to control; type: functional; conditions: read-out: GI
SK-MEL-5 = assay: Growth inhibition of human SK-MEL-5 cells at 10 uM relative to control; type: functional; conditions: read-out: GI
NCI-H460 = assay: Growth inhibition of human NCI-H460 cells at 10 uM relative to control; type: functional; conditions: read-out: GI
BT-549 = assay: Growth inhibition of human BT-549 cells at 10 uM relative to control; type: functional; conditions: read-out: GI
SNB-19 = assay: Growth inhibition of human SNB-19 cells at 10 uM relative to control; type: functional; conditions: read-out: GI
RXF 393 = assay: Growth inhibition of human RXF 393 cells at 10 uM relative to control; type: functional; conditions: read-out: GI
NCI-H226 = assay: Growth inhibition of human NCI-H226 cells at 10 uM relative to control; type: functional; conditions: read-out: GI
SR = assay: Growth inhibition of human SR cells at 10 uM relative to control; type: functional; conditions: read-out: GI
SF-539 = assay: Growth inhibition of human SF-539 cells at 10 uM relative to control; type: functional; conditions: read-out: GI
NCI-H23 = assay: Growth inhibition of human NCI-H23 cells at 10 uM relative to control; type: functional; conditions: read-out: GI
HOP-62 = assay: Growth inhibition of human HOP-62 cells at 10 uM relative to control; type: functional; conditions: read-out: GI
A498 = assay: Growth inhibition of human A498 cells at 10 uM relative to control; type: functional; conditions: read-out: GI
TK-10 = assay: Growth inhibition of human TK-10 cells at 10 uM relative to control; type: functional; conditions: read-out: GI
HL-60(TB) = assay: Growth inhibition of human HL-60(TB) cells at 10 uM relative to control; type: functional; conditions: read-out: GI
MDA-MB-231 = assay: Growth inhibition of human MDA-MB-231 cells at 10 uM relative to control; type: functional; conditions: read-out: GI
K562 = assay: Growth inhibition of human K562 cells at 10 uM relative to control; type: functional; conditions: read-out: GI
PC-3 = assay: Growth inhibition of human PC-3 cells at 10 uM relative to control; type: functional; conditions: read-out: GI
MCF7 = assay: Growth inhibition of human MCF7 cells at 10 uM relative to control; type: functional; conditions: read-out: GI
COLO 205 = assay: Growth inhibition of human COLO 205 cells at 10 uM relative to control; type: functional; conditions: read-out: GI
KM12 = assay: Growth inhibition of human KM12 cells at 10 uM relative to control; type: functional; conditions: read-out: GI
HT-29 = assay: Growth inhibition of human HT-29 cells at 10 uM relative to control; type: functional; conditions: read-out: GI
SNB-75 = assay: Growth inhibition of human SNB-75 cells at 10 uM relative to control; type: functional; conditions: read-out: GI
Malme-3M = assay: Growth inhibition of human Malme-3M cells at 10 uM relative to control; type: functional; conditions: read-out: GI
HOP-92 = assay: Growth inhibition of human HOP-92 cells at 10 uM relative to control; type: functional; conditions: read-out: GI
RPMI-8226 = assay: Growth inhibition of human RPMI-8226 cells at 10 uM relative to control; type: functional; conditions: read-out: GI
SN12C = assay: Growth inhibition of human SN12C cells at 10 uM relative to control; type: functional; conditions: read-out: GI
OVCAR-4 = assay: Growth inhibition of human OVCAR-4 cells at 10 uM relative to control; type: functional; conditions: read-out: GI
T47D = assay: Growth inhibition of human T47D cells at 10 uM relative to control; type: functional; conditions: read-out: GI
IGROV-1 = assay: Growth inhibition of human IGROV-1 cells at 10 uM relative to control; type: functional; conditions: read-out: GI
SK-MEL-2 = assay: Growth inhibition of human SK-MEL-2 cells at 10 uM relative to control; type: functional; conditions: read-out: GI
UACC-62 = assay: Growth inhibition of human UACC-62 cells at 10 uM relative to control; type: functional; conditions: read-out: GI
SW-620 = assay: Growth inhibition of human SW-620 cells at 10 uM relative to control; type: functional; conditions: read-out: GI
DU-145 = assay: Growth inhibition of human DU-145 cells at 10 uM relative to control; type: functional; conditions: read-out: GI
NCI-H322M = assay: Growth inhibition of human NCI-H322M cells at 10 uM relative to control; type: functional; conditions: read-out: GI
SK-OV-3 = assay: Growth inhibition of human SK-OV-3 cells at 10 uM relative to control; type: functional; conditions: read-out: GI
A549 = assay: Growth inhibition of human A549 cells at 10 uM relative to control; type: functional; conditions: read-out: GI
CCRF-CEM = assay: Growth inhibition of human CCRF-CEM cells at 10 uM relative to control; type: functional; conditions: read-out: GI
NCI/ADR-RES = assay: Growth inhibition of human NCI/ADR-RES cells at 10 uM relative to control; type: functional; conditions: read-out: GI
UACC-257 = assay: Growth inhibition of human UACC-257 cells at 10 uM relative to control; type: functional; conditions: read-out: GI
OVCAR-5 = assay: Growth inhibition of human OVCAR-5 cells at 10 uM relative to control; type: functional; conditions: read-out: GI
U-251 = assay: Growth inhibition of human U-251 cells at 10 uM relative to control; type: functional; conditions: read-out: GI
MOLT-4 = assay: Growth inhibition of human MOLT-4 cells at 10 uM relative to control; type: functional; conditions: read-out: GI
SK-MEL-28 = assay: Growth inhibition of human SK-MEL-28 cells at 10 uM relative to control; type: functional; conditions: read-out: GI
CAKI-1 = assay: Growth inhibition of human CAKI-1 cells at 10 uM relative to control; type: functional; conditions: read-out: GI

CC1=CN2C(=NC(/C=C/c3ccc(C)cc3)=CC2c2ccc(C)cc2)S1 (centres undefined)
inhibition of growth at 10 µM (HCT-116): < 10%
inhibition of growth at 10 µM (SF-268): < 10%
inhibition of growth at 10 µM (Hs-578T): < 10%
inhibition of growth at 10 µM (ACHN): < 10%
inhibition of growth at 10 µM (SF-295): < 10%
inhibition of growth at 10 µM (M14): < 10%
inhibition of growth at 10 µM (MDA-MB-435): < 10%
inhibition of growth at 10 µM (HCC 2998): < 10%
inhibition of growth at 10 µM (UO-31): 19.1%
IC50 (DNA): 87.57 µg/mL (≈ 244 µM)
inhibition of growth at 10 µM (NCI-H522): 10.9%
inhibition of growth at 10 µM (786-0): < 10%
inhibition of growth at 10 µM (LOX IMVI): < 10%
inhibition of growth at 10 µM (OVCAR-8): < 10%
inhibition of growth at 10 µM (MDA-MB-468): 11.3%
inhibition of growth at 10 µM (HCT-15): < 10%
inhibition of growth at 10 µM (SK-MEL-5): < 10%
inhibition of growth at 10 µM (NCI-H460): < 10%
inhibition of growth at 10 µM (BT-549): < 10%
inhibition of growth at 10 µM (SNB-19): < 10%
inhibition of growth at 10 µM (RXF 393): < 10%
inhibition of growth at 10 µM (NCI-H226): < 10%
inhibition of growth at 10 µM (SR): < 10%
inhibition of growth at 10 µM (SF-539): < 10%
inhibition of growth at 10 µM (NCI-H23): < 10%
inhibition of growth at 10 µM (HOP-62): < 10%
inhibition of growth at 10 µM (A498): < 10%
inhibition of growth at 10 µM (TK-10): < 10%
inhibition of growth at 10 µM (HL-60(TB)): < 10%
inhibition of growth at 10 µM (MDA-MB-231): < 10%
inhibition of growth at 10 µM (K562): < 10%
inhibition of growth at 10 µM (PC-3): < 10%
inhibition of growth at 10 µM (MCF7): < 10%
inhibition of growth at 10 µM (COLO 205): < 10%
inhibition of growth at 10 µM (KM12): < 10%
inhibition of growth at 10 µM (HT-29): < 10%
inhibition of growth at 10 µM (SNB-75): 13.7%
inhibition of growth at 10 µM (Malme-3M): < 10%
inhibition of growth at 10 µM (HOP-92): < 10%
inhibition of growth at 10 µM (RPMI-8226): < 10%
inhibition of growth at 10 µM (SN12C): < 10%
inhibition of growth at 10 µM (OVCAR-4): < 10%
inhibition of growth at 10 µM (T47D): < 10%
inhibition of growth at 10 µM (IGROV-1): < 10%
inhibition of growth at 10 µM (SK-MEL-2): < 10%
inhibition of growth at 10 µM (UACC-62): < 10%
inhibition of growth at 10 µM (SW-620): < 10%
inhibition of growth at 10 µM (DU-145): < 10%
inhibition of growth at 10 µM (NCI-H322M): < 10%
inhibition of growth at 10 µM (SK-OV-3): < 10%
inhibition of growth at 10 µM (A549): < 10%
inhibition of growth at 10 µM (CCRF-CEM): < 10%
inhibition of growth at 10 µM (NCI/ADR-RES): < 10%
inhibition of growth at 10 µM (UACC-257): < 10%
inhibition of growth at 10 µM (OVCAR-5): < 10%
inhibition of growth at 10 µM (U-251): < 10%
inhibition of growth at 10 µM (MOLT-4): 12.6%
inhibition of growth at 10 µM (SK-MEL-28): < 10%
inhibition of growth at 10 µM (CAKI-1): < 10%
